Assays:
[1] = test system: rats with cerebral ischemic reperfusion injury; test: Cerebral ischemic reperfusion (MCAO, suture method) rat model; assay type: in vivo; settings: for Relative cerebral infarction volume(%): 40 mg/kg i.v. 30 min before and 12 h after reperfusion, TTC
[2] = test system: permanent cerebral ischemia model rats; test: Permanent cerebral ischemia (MCAO, suture method) rat model; settings: for Fas average gray scale: gray scale inversely proportional to expression; for Relative cerebral infarction volume(%): 40 mg/kg i.v. 30 min before insertion of thread and 12 h after embolism, TTC
[3] = 40 mg/kg i.v., brain sections, TUNEL

SMILES	Relative cerebral infarct volume (%) ([1]; edaravone 3 mg/kg, 24 h after reperfusion)	Relative cerebral infarct volume (%) ([2]; edaravone 3 mg/kg, 24 h after embolism)	Fas average gray scale ([2]; edaravone 3 mg/kg, brain sections)	TNF-α content ([2]; edaravone 3 mg/kg, brain tissue homogenate) [ng/mL]	Relative cerebral infarction volume(%) ([1]; 24 h after reperfusion)	Number of apoptotic cells [1, 3]	Fas average gray scale ([1]; 40 mg/kg i.v., brain sections, immunohistochemistry, gray scale inversely proportional to expression)	Relative cerebral infarction volume(%) ([2]; 24 h after embolism)	Number of apoptotic cells [2, 3]	Fas average gray scale ([2]; 40 mg/kg i.v., brain sections, immunohistochemistry)
CC1=NN(c2ccccc2)C(=O)C1 [Edaravone injection, edaravone]	29.31 ± 3.95	31.29 ± 4.02	138.95 ± 5.50	5.53 ± 0.54						
CC(=O)Oc1c(C(C)C)cc(-c2cc(C(C)C)c(O)c(C(C)C)c2)cc1C(C)C [Example 2, 4′-hydroxy-3,3′,5,5′-tetraisopropylbiphenyl-4-acetate]					18.71 ± 4.69	19.14 ± 4.24	162.47 ± 3.96	24.71 ± 3.76	20.41 ± 5.02	158.28 ± 6.66
CC(=O)Oc1c(C(C)C)cc(-c2cc(C(C)C)c(OC(C)=O)c(C(C)C)c2)cc1C(C)C [Example 3, 3,3′,5,5′-tetraisopropylbiphenyl-4′-diacetate]					23.22 ± 3.12			27.92 ± 4.51		
